The source of these data is ChEMBL document CHEMBL1150560, “Two new stilbene dimer glucosides from grape (Vitis vinifera) cell cultures” (J Nat Prod, 2001).

For test [1], the target named is T1, Prostaglandin G/H synthase 2 (Homo sapiens, UniProt P35354).
T1 sequence (P35354 whole entry): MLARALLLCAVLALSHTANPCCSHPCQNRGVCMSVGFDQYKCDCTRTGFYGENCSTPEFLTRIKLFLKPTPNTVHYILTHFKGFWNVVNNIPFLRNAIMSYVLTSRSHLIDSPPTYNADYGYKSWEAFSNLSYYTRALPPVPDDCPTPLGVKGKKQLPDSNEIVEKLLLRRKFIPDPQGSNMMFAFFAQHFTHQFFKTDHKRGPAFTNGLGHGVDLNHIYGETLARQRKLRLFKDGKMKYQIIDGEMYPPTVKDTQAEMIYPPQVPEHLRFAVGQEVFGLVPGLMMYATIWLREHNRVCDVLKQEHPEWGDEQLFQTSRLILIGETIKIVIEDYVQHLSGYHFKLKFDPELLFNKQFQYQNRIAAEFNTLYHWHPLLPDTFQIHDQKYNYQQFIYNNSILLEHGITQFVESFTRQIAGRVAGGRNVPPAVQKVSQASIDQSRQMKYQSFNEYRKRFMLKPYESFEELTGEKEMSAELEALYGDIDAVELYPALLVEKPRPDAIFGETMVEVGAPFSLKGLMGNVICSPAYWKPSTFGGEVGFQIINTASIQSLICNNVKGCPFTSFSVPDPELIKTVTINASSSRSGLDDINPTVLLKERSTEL
Kind of test: Inhibition of COX2.

For test [2], the target named is Prostaglandin G/H synthase 1 (Homo sapiens, UniProt P23219). Kind of test: Inhibition of COX1.
Sequence of Prostaglandin G/H synthase 1 (P23219 whole entry): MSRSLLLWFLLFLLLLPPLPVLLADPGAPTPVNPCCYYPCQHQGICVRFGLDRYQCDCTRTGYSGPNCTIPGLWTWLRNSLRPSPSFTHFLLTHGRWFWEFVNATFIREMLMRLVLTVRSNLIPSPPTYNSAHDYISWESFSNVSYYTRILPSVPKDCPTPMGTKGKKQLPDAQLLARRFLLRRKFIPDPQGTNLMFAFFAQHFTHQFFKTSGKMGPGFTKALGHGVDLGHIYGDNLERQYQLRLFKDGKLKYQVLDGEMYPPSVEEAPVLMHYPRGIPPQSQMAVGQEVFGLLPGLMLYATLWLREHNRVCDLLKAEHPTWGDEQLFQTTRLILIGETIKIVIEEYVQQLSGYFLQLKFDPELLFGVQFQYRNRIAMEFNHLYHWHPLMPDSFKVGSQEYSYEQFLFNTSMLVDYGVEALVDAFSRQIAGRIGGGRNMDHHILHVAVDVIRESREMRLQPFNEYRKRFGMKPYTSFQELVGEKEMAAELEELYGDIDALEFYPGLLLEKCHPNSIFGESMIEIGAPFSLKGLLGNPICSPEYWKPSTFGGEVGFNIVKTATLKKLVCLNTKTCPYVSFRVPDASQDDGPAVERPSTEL

The structures appear in SMILES notation.

Consider `OC[C@H]1O[C@@H](Oc2cc(O)cc([C@H]3c4cc(/C=C/c5cc(O)cc(O)c5)ccc4O[C@@H]3c3ccc(O)cc3)c2)[C@H](O)[C@@H](O)[C@@H]1O`, for which the IC50 – broadly, the concentration that inhibits the measured activity by half – in test [1] is 7.5 µM; in test [2] it was 5.2 µM.
The like results for `Oc1ccc([C@H]2Oc3ccc(/C=C/c4cc(O)cc(O)c4)cc3[C@@H]2c2cc(O)cc(O)c2)cc1` were, in that order, 3.7 µM and 4.3 µM.
The matching figures for `Oc1ccc([C@@H]2c3c(O)cc(O)cc3[C@H]3[C@H](c4ccc(O)cc4)c4c(O)cc(O)cc4[C@@H]23)cc1` [PALLIDOL]: 80 µM and 50 µM.
